Where two headings read alike, the source gives them in different places.
How the values were obtained:
[1] = 105° C
Source text: The susceptibility of the peroxycarbonate to heat decomposition can be ascertained from its half life and the foaming temperature thereof.

[2] = Foaming decomposition temperature; type: physicochemical
[3] = prior art peroxide; cited from earlier work
[4] = prior art peroxide, peroxy group in the copolymer; cited from earlier work

Row | Compound | Half life ([1]; solvent benzene) | Half life ([1]; solvent toluene) | foaming decomposition temperature [2] | storage stability, in words [3] | decomposition activity, in words [4]
1 | C=C(C)COC(=O)OOC(C)(C)C [t-butylperoxy methallyl carbonate] | 2.9 h | 4.9 h | 117.5 °C |  | 
2 | C=C(C)COC(=O)OOC(C)(C)CC(C)(C)C [1,1,3,3-tetramethylbutylperoxy methallyl carbonate] | 1.1 h |  | 106.5 °C |  | 
3 | CC(C)C(=O)OOC(C)(C)C [t-butyl peroxy isobutyrate, t-butyl peroxyisobutyrate, reference compound] | 0.37 h |  |  |  | 
4 | t-hexylperoxy methallyl carbonate | 2.9 h |  | 115.5 °C |  | 
5 | C=CCOC(=O)OOC(C)(C)C [t-butylperoxy allyl carbonate] | 3.9 h | 6.9 h | 117.5 °C |  | 
6 | t-hexylperoxy allyl carbonate | 3.8 h |  | 107.3 °C |  | 
7 | butyl peroxymethacrylate |  |  |  | not stable during storage | 
8 | CC(C)OC(=O)OOC(C)(C)C [t-butylperoxy isopropyl carbonate, reference compound] | 4.1 h |  |  |  | 
9 | C=CCOC(=O)OOC(C)(C)CC(C)(C)C [1,1,3,3-tetramethylbutylperoxy allyl carbonate] | 1.4 h |  | 103.5 °C |  | 
10 | C/C=C/C(=O)OOC(C)(C)C [t-butylperoxycrotonate] |  |  |  |  | active at low temperature

— US4119657A, “Novel peroxycarbonate” (priority 1976, dated 1978)
